Key:
[1] = system: gelatinase activity in rat cirrhotic liver; assay: In situ zymography of cirrhotic liver, negative controls; assay type: biochemical; settings: 10 mM ethylenediaminetetraacetic acid or 1 mM phenanthroline; DQ-gelatine
Experimental: As described earlier, in situ zymography was performed with cryostat sections (6 μm) of rat cirrhotic liver. In brief, sections were dried, overlayed with 100 μg/ml DQ-gelatine (λex/em, 495/515 nm; Molecular Probes, Eugene, OR, USA) and 0.5% (wt/vol) low-melt agarose in MMP activity buffer. […] Samples were inserted into coverslips and incubated at 40°C for 1 h before being transferred to room temperature for an additional 2 to 16 h. Hoechst 33342 (Invitrogen, Carlsbad, California, USA) nuclear dye was used for counterstaining. Images were obtained by fluorescence microscopy using a Nikon E800 photodocumentation microscope (Nikon Imaging, Düsseldorf, Germany).

ActMMP-2 = assay: Solid-phase binding of [125I]-actMMP-2 to immobilized collagens/peptides (microwells); parameters: species or system human; settings: for Binding of [125I]-MMPs: ActMMP-2, 2 ng/well, coated wells, 4°C, 2 h, residual radioactivity, mean ± SD, at least five experiments in triplicate
Experimental: (§1) Human recombinant proMMPs and in vitro activated MMPs were obtained from Invitek and were labeled with the [^125I]-Bolton-Hunter reagent according to the manufacturer's instructions (PerkinElmer, Rodgau, Germany) before the buffer was exchanged for phosphate-buffered saline (PBS) with 0.05% (vol/vol) Tween 20 by gel filtration as described previously. Specific radioactivity for [^125I]-MMPs was 3-9 × 10^4 cpm/ng. Precipitation with 10% (wt/vol) trichloroacetic acid and 200 μg of BSA recovered 96% to 100% of protein-bound radioactivity. Aliquots of labeled MMPs were frozen and stored at -80°C. The activity and integrity were checked by substrate gel zymography using SDS-PAGE and autoradiography with overnight exposure to Biomax MS film (Kodak, Stuttgart, Germany) (Figure 2A).
(§2) Native human CI, CIII and CVI were purified from skin tissue and placenta. The CI single chains α1(I) and α2(I) were obtained and modified as described previously. To prepare defined fragments, 2 mg of α1(I) were dissolved in 1 ml of 70% (vol/vol) formic acid at room temperature, the tubes were flushed with nitrogen for 10 min, and then 2 mg of CB were added. After incubation for 4 h at 37°C, free CB was neutralized and the samples were lyophilized. The peptides CB3, CB6, CB7 and CB8 were separated from the reaction mixture by gel filtration followed by ion-exchange chromatography. The resulting peptides were characterized by amino acid analysis and SDS-PAGE [45, 46]. The CB peptides had the following melting temperatures: CB3, 23.9°C; CB6, 26.7°C; CB7, 28.1°C; and CB8, 28.0°C [31].
(§3) The following collagen analogs and control peptides were synthesized as described previously: (GPO)10, H-Gly-Cys-Hyp-(Gly-Pro-Hyp)10-Gly-Cys-Hyp-Gly-NH2; (GPP)10, H-Gly-Cys-Pro-(Gly-Pro-Pro)10-Gly-Cys-Pro-Gly-NH2; and GAP, H-Gly-Ala-Cys-(Gly-Ala-Pro)5-Gly-Phe-Hyp-Gly-Glu-Arg-(Gly-Ala-Pro)5-NH2. Peptides (POG)10, (PPG)10 and (POG)5 were purchased from Peptide International (Louisville, KY, USA). Spontaneous triple-helix assembly was approved by polarimetry over a 10-cm path length at 1°C/min in 10 mM phosphate buffer, pH 7.4. At 5 mg/ml, midpoints of melting curves occurred at 82.3 ± 1.4°C for (GPO)10 and at 45.8 ± 0.8°C for (GPP)10. […] Graphs were calculated from the primary data using a custom fitting program written by D.A. Slatter (Department of Biochemistry, University of Cambridge, Cambridge, UK [48]) to model different possible transitions. All collagens, CI derivatives and peptides were stored in stock solutions of 2 mg/ml in 150 mM acetic acid at -20°C.
(§4) ProMMP-2 and proMMP-9 or actMMP-2 and actMMP-9 were bound to nitrocellulose and polystyrene-immobilized native collagens, CI chains, CB peptides or structural analogs. Serial dilutions of collagens or CI derivatives in 150 mM acetic acid were dotted at 3 × 3 μl to a nitrocellulose membrane with high protein-binding capacity (GE Healthcare, Munich, Germany). Air-dried membranes were blocked with PBS and 0.3% (vol/vol) Tween 20 overnight at 4°C, washed three times, and incubated with 1 ng/ml [^125I]-pro- and actMMP-2 and pro- and actMMP-9 in PBS and 0.3% (vol/vol) Tween 20 for 2 h at room temperature. Membranes were washed again and air-dried, and bound MMP was monitored by autoradiography. In parallel, polystyrene microtiter plates (Dynex, Chantilly, VA, USA) were coated with collagen proteins and peptides. Here 2 μg/well or 200 ng/well proteins and peptides or BSA as control were immobilized in 100 μl of 50 mM ammonium bicarbonate buffer, pH 9.6, by overnight incubation at 4°C. Immobilization efficacies were 20% to 45% of total proteins. Wells were washed three times with PBS, and nonspecific binding sites were blocked with PBS and 0.05% (vol/vol) Tween 20 for 1 h at room temperature. All incubation steps were performed with 2 ng of [^125I]-MMPs at 4°C for 2 h. […]

ActMMP-9 = assay: Solid-phase binding of [125I]-actMMP-9 to immobilized collagens/peptides (microwells); parameters: species or system human; settings: ActMMP-9, 2 ng/well; coated wells; 4°C, 2 h; residual radioactivity; mean ± SD, at least five experiments in triplicate
Experimental: as §1, §2, §3, §4

ProMMP-9 = assay: Solid-phase binding of [125I]-proMMP-9 to immobilized collagens/peptides (microwells); parameters: species or system human; settings: ProMMP-9, 2 ng/well; coated wells; 4°C, 2 h; residual radioactivity; mean ± SD, at least five experiments in triplicate
Experimental: as §1, §2, §3, §4

ProMMP-2 = assay: Solid-phase binding of [125I]-proMMP-2 to immobilized collagens/peptides (microwells); parameters: species or system human; settings: for Binding of [125I]-MMPs: ProMMP-2, 2 ng/well, coated wells, 4°C, 2 h, residual radioactivity, mean ± SD, at least five experiments in triplicate
Experimental: as §1, §2, §3, §4

[2] = Triple-helix melting temperature; assay type: physicochemical; settings: at 5°C; polarimetry
Experimental: as §2, §3

proMMP-2 / CI = biological target: T1, proMMP-2 / CI (Homo sapiens, UniProt P08253); assay: SPR, competition of proMMP-2 binding to CI, MMP activity buffer with Ro 28-2653; settings: SPR; MMP activity buffer with Ro 28-2653
T1 construct: prodomain-containing proMMP-2 or proMMP-9; purchased Invitek
T1 sequence (P08253 30-660 limits assumed): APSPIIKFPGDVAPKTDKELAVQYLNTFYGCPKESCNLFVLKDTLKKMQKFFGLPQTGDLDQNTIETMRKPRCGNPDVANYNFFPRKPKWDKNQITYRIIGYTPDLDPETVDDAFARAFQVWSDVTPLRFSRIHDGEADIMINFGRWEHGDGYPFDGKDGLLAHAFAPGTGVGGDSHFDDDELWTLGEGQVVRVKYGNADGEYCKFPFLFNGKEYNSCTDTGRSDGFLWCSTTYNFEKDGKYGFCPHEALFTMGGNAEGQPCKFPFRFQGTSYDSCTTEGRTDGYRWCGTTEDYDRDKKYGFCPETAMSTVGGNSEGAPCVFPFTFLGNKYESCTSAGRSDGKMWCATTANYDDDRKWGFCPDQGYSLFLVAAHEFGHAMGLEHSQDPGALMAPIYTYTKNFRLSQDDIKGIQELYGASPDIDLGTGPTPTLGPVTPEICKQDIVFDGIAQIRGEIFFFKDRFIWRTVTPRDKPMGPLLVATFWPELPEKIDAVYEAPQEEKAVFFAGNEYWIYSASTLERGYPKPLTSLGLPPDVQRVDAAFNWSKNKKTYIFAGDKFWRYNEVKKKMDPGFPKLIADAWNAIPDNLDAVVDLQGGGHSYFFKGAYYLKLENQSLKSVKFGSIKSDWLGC
Experimental: (§5) Sensor chip preparations and SPR measurements were performed using a BiacoreX device and the Bia-evaluation software (version 3.2; Biacore, Uppsala, Sweden). The pepsin-resistant triple-helical part of human fibrillar CI (100 μg/ml) in 10 mM acetate coupling buffer, pH 4.8, was immobilized to a dextran matrix-sensor chip at a flow rate of 5 μl/min, resulting in 5,500 resonance units from CI covalently linked via its primary amino groups. The control flow cell was prepared using the coupling buffer without CI. Surfaces were activated and blocked as described previously. Immediately after thawing, pro- and actMMP-2 and pro- and actMMP-9 were diluted to 100 to 250 nM in MMP activity buffer or in PBS and 0.05% (vol/vol) Tween 20. For SPR measurements, flow rates were 10 μl/min at 25°C, and equilibrium was typically reached after 30 to 60 s. The effects of (GPO)10, GAP, (POG)5, (GPP)10 and P33-42 on MMP-2 and MMP-9 binding to CI and their enzymatic activity were determined by adding the binding competitors to the (pro- and act)MMP-2 and MMP-9 solution in 10- to 150-fold molar excesses. Effects independent of MMP-2 and MMP-9 activity were monitored in the presence of Ro 28-2653 (1 μM) during SPR analysis. The gelatinase inhibitor Ro 28-2653 was a generous gift from H.-W. Krell (Roche, Grenzach-Wyhlen, Germany). Sensor surfaces were regenerated with 10 mM glycine, pH 2.3, for 1 min between runs, and sensor chips were used up to 25 times. Kinetic parameters were analyzed using the 1:1 binding model with drifting baseline and subtraction of the control flow cell binding from sensorgrams obtained with immobilized CI. Binding constants (Kd) were calculated from the association (ka) and dissociation rates (kd) obtained from individual binding curves at different concentrations. Individual drifts of the resonance signal were fitted locally, and χ^2 values of 0.2% to 1.0% of the maximum resonance value were considered good fits.

MMPs / CI = assay: SPR, effect of control peptide on interaction of the MMPs with CI; assay type: binding, human; settings: linear control peptide, not shown
Experimental: as §5, with “Immediately after thawing, pro- and actMMP-2 and pro- and actMMP-9 were diluted to 100 to 250 nM in MMP activity buffer or in PBS and 0.05% (vol/vol) Tween 20. For SPR measurements, flow rates were 10 μl/min at 25°C, and equilibrium was typically reached after 30 to 60 s.” left out, “The gelatinase inhibitor Ro 28-2653 was a generous gift from H.-W. Krell (Roche, Grenzach-Wyhlen, Germany). Sensor surfaces were regenerated with 10 mM glycine, pH 2.3, for 1 min between runs, and sensor chips were used up to 25 times.” left out, “Individual drifts of the resonance signal were fitted locally, and χ^2 values of 0.2% to 1.0% of the maximum resonance value were considered good fits.” left out

Row | Binding of [125I]-MMPs (ActMMP-2) | maximum binding (ActMMP-2; actMMP-2, text) [%] | Binding of [125I]-MMPs (ActMMP-9) | Binding of [125I]-MMPs (ProMMP-9) | Binding of [125I]-MMPs (ProMMP-2) | helicity [2] | competition with proMMP-2 binding to CI (proMMP-2 / CI) | interaction with control peptides (ProMMP-2; pro- and act-forms of MMP-2 and MMP-9, in words) | Compound | gelatinase activity [1] | effect on interaction of the MMPs with CI (MMPs / CI)
1 | 1.5 ± 0.7 % of maximum control | – | 0.7 ± 0.2 % of maximum control | 1.3 ± 0.2 % of maximum control | 1.7 ± 1.0 % of maximum control | nonhelical even at 5 °C | less efficient | only marginal interactions | H-Gly-Ala-Cys-(Gly-Ala-Pro)5-Gly-Phe-Hyp-Gly-Glu-Arg-(Gly-Ala-Pro)5-NH2 [GAP, linear Gly-Ala-Pro (GAP) control peptide] | – | no effect
2 | 4.8 ± 0.6 % of maximum control | – | 2.4 ± 0.1 % of maximum control | 12.3 ± 0.8 % of maximum control | 14.1 ± 1.8 % of maximum control | – | – | – | CVI: native human collagen type VI | – | –
3 | 10.7 ± 1.8 % of maximum control | – | 2.6 ± 0.2 % of maximum control | 21.8 ± 1.1 % of maximum control | 30.2 ± 2.3 % of maximum control | – | – | – | α2(I): CI single chain α2(I) | – | –

Continued, compound first:

Row | Compound | Binding of [125I]-MMPs (ActMMP-2) | maximum binding (ActMMP-2; actMMP-2, text) [%] | Binding of [125I]-MMPs (ActMMP-9) | Binding of [125I]-MMPs (ProMMP-9) | Binding of [125I]-MMPs (ProMMP-2) | helicity [2] | competition with proMMP-2 binding to CI (proMMP-2 / CI) | interaction with control peptides (ProMMP-2; pro- and act-forms of MMP-2 and MMP-9, in words) | gelatinase activity [1] | effect on interaction of the MMPs with CI (MMPs / CI)
4 | c1cnc2c(c1)ccc1cccnc12 [phenanthroline] | – | – | – | – | – | – | – | – | no generation of bright green fluorescence was observed | –
5 | α1(I): α1 chain of collagen type I | 19.0 ± 3.0 % of maximum control | 19 | 4.7 ± 0.3 % of maximum control | 37.6 ± 0.9 % of maximum control | 36.0 ± 4.0 % of maximum control | – | – | – | – | –
6 | O=C(O)CN(CCN(CC(=O)O)CC(=O)O)CC(=O)O [ethylenediaminetetraacetic acid] | – | – | – | – | – | – | – | – | no generation of bright green fluorescence was observed | –
